Source: article PMC6222820, “Synthesis of New Triarylpyrazole Derivatives Possessing Terminal Sulfonamide Moiety and Their Inhibitory Effects on PGE2 and Nitric Oxide Productions in Lipopolysaccharide-Induced RAW 264.7 Macrophages” (Molecules : A Journal of Synthetic Chemistry and Natural …, 2018)
Entries after “also recorded” stand apart in the source; their conditions may differ.

Legend:
[1] = system: LPS-induced RAW 264.7 macrophages; test: Nitric oxide (NO) production inhibition in LPS-induced RAW 264.7 macrophages (nitrite determination); assay type: cell-based; conditions: for Nitric Oxide % Inhibition / inhibition at 1 µM / inhibition at 5 µM / inhibition at 10 µM: LPS-induced RAW 264.7 macrophages; for IC50: means ± SD of three independent experiments, read-out: NO (IC50); for inhibition at 1 µM: RAW264.7, 1 µM; for inhibition at 5 µM: RAW264.7, 5 µM; for inhibition at 10 µM: RAW264.7, 10 µM
Protocol: The ability of a certain molecule to inhibit the production of inflammatory mediator(s) is one of successful approach to treatment both chronic and acute inflammation.
(§1) Cell culture and sample treatment were performed as reported in the literature. The 3-(4,5-dimethylthiazol-2-yl)-2,5-diphenyltetrazolium bromide (MTT) assay for cell viability followed the procedure previously described in the literature. Nitrite determination was carried as described in the literature, and the PGE2 assay was carried as previously described.

[2] = system: RAW 264.7 macrophages; test: MTT assay for cell viability / cytotoxicity; assay type: cell-based; conditions: means ± SD of three independent experiments
Protocol: (§2) In addition to NO inhibition, the cytotoxic activity of compounds 1a–i, 2a–i, 3a–h, and 4a–h in RAW 264.7 macrophages were measured using the 3-(4,5-dimethylthiazol-2-yl)-2,5-diphenyltetrazolium bromide (MTT) assay to check whether the effects on the production of NO was caused by nonspecific cytotoxicity.
as §1

[3] = MTT assay for cell viability / cytotoxicity; assay type: cell-based; conditions: mouse, RAW 264.7 macrophages, means ± SD of three independent experiments
Protocol: as §2, §1

[4] = system: LPS-induced RAW 264.7 macrophages; test: PGE2 production inhibition in LPS-induced RAW 264.7 macrophages; assay type: cell-based; conditions: means ± SD of three independent experiments; for inhibition at 1 µM: RAW264.7, 1 μM; for inhibition at 5 µM: RAW264.7, 5 μM; for inhibition at 10 µM: RAW264.7, 10 μM
Protocol: Compounds 1b, 1g, 2a, and 2c were able to inhibit more than 50% of the prostaglandin production at a dose 5 μM. The five compounds were able to reduce PGE2 production by over 75% at a dose of 10 μM.
as §1

[5] = system: inducible nitric oxide synthase (iNOS); test: LPS-induced iNOS protein expression (SDS-PAGE / immunoblot of cellular lysates); assay type: cell-based; conditions: 20 µM; pretreatment 1 h, then LPS (1 μg/mL) 24 h; β-actin reference
Protocol: As a result of their activity against both NO and PGE2 production and low cellular toxicity, compounds 1b, 1d, 1g, 2a, and 2c were tested for their inhibitory effect on the expression of both iNOS and COX-2. The cellular lysates were prepared from the with- and without-pretreatment tested compounds (5, 10, 20 μM) for one hour and then with LPS (1 μg/mL) for 24 h, using β-actin as a reference. […] Compound 1g might express its inhibitory effect on NO production mainly through inhibition of iNOS protein expression and partially through inhibition of iNOS enzyme activity.
Figure 3 Inhibitory activity of compounds 1b, 1d, 1g, 2a, and 2c on inducible nitric oxide synthase (iNOS) and Cyclooxygenase 2 (COX-2) Cellular lysates were prepared from the with/without pretreatment tested compound (5, 10, and 20 μM) for one hour and then with LPS (1 μg/mL) for 24 h. Total cellular proteins were resolved by sodium dodecyl sulphate-polyacrylamide gel electrophoresis (SDS-PAGE), transferred to Polyvinylidene fluoride (PVDF) membranes, and detected with specific iNOS and COX-2 antibodies. β-actin was used as an internal control.

[6] = biological target: T1, iNOS (Mus musculus, UniProt P29477); test: iNOS enzyme activity in LPS-pretreated cells (Griess reaction); assay type: cell-based; conditions: 5, 10, or 20 μM for 12 h after LPS (1 µg/mL) 12 h
T1 construct: endogenous in cells; host or cells: RAW 264.7 macrophages, LPS-stimulated
Protocol: Figure 4 Effect of compounds 1b, 1d, 1g, 2a, and 2c on iNOS activity. Following pretreatment with lipopolysaccharide (LPS, 1 µg/mL) for 12 h and wash with phosphate buffer solution (PBS), cells were treated with 1g (5, 10, or 20 μM) for 12 h N^6-(1-Iminoethyl)-L-lysine. (L-NIL) (40 μM) was used as the positive control in the assay. Levels of NO in culture media were quantified using the Griess reaction assay. Data are presented as the means ± SD of three independent experiments. # p < 0.05 versus the control cells; *** p < 0.001 versus LPS-stimulated cells; * statistical significances were compared using ANOVA and Dunnett’s post hoc test.

[7] = Mus musculus, RAW264.7, nitric oxide production
[8] = Mus musculus, RAW264.7, LPS-induced RAW 264.7 macrophages

SMILES | Nitric Oxide % Inhibition ([1]; 1 µM) [%] | Nitric Oxide % Inhibition ([1]; 5 µM) [%] | Nitric Oxide % Inhibition ([1]; 10 µM) [%] | IC50 ([1]; nitric oxide production) [µM] | IC50 [2] [µM] | inhibition at 1 µM ([1]; Mus musculus) [%] | inhibition at 5 µM ([1]; Mus musculus) [%] | inhibition at 10 µM ([1]; Mus musculus) [%] | IC50 [1, 7] [µM] | IC50 [3] [µM] | IC50 ([4]; LPS-induced RAW 264.7 macrophages) [µM] | inhibition at 1 µM ([4]; Mus musculus) [%] | inhibition at 5 µM ([4]; Mus musculus) [%] | inhibition at 10 µM ([4]; Mus musculus) [%] | IC50 [4, 8] [µM] | Inhibition of iNOS expression [5] | Inhibition of iNOS enzyme activity [6] | melting point [°C]
COc1cccc(-c2nn(-c3ccccc3)cc2-c2ccnc(NCCNS(=O)(=O)c3ccc(C)cc3)c2)c1 [Compound 1f, N-(2-((4-(3-(3-Methoxyphenyl)-1-phenyl-1H-pyrazol-4-yl)pyridin-2-yl)amino)ethyl)-4-methyl benzenesulfonamide] | 16.29 ± 0.10 | 26.54 ± 0.65 | 53.09 ± 2.10 | 9.42 ± 0.12 | 291 ± 1.12 | – | – | – | – | – | – | – | – | – | – | – | – | –
COc1cccc(-c2nn(-c3ccccc3)cc2-c2ccnc(NCCNS(=O)(=O)c3ccc(Br)cc3)c2)c1 [Compound 1b, 4-Bromo-N-(2-((4-(3-(3-methoxyphenyl)-1-phenyl-1H-pyrazol-4-yl)pyridin-2-yl)amino)ethyl)benzenesulfonamide] | – | – | – | – | – | 12.05 ± 0.11 | 24.2 ± 0.98 | 68.7 ± 2.47 | 7.9 ± 0.41 | 254.2 ± 2.54 | 4.75 ± 0.25 | 16.2 ± 0.79 | > 50 | 76.9 ± 1.34 | 4.72 | partial inhibitory effect; also recorded: potential iNOS inhibitory effect | slightly inhibited iNOS enzyme activity in a dose-dependent manner | 136 to 138
COc1cccc(-c2nn(-c3ccccc3)cc2-c2ccnc(NCCNS(=O)(=O)c3ccc(F)cc3)c2)c1 [Compound 1d, 4-Fluoro-N-(2-((4-(3-(3-methoxyphenyl)-1-phenyl-1H-pyrazol-4-yl)pyridin-2-yl)amino)ethyl)benzenesulfonamide] | – | – | – | 8.23 ± 0.32 | – | 19.79 ± 0.14 | 29.4 ± 0.77 | 61.3 ± 1.33 | 8.2 | 169.2 ± 1.64 | – | 10.3 ± 0.81 | 49.6 ± 1.25 | 85.8 ± 2.64 | 5.06 ± 0.21 | partial inhibitory effect; also recorded: potential iNOS inhibitory effect | slightly inhibited iNOS enzyme activity in a dose-dependent manner | 155 to 156
COc1cccc(-c2nn(-c3ccccc3)cc2-c2ccnc(NCCNS(=O)(=O)c3ccc(C(F)(F)F)cc3)c2)c1 [Compound 1g, N-(2-((4-(3-(3-Methoxyphenyl)-1-phenyl-1H-pyrazol-4-yl)pyridin-2-yl)amino)ethyl)-4-(trifluoromethyl)benzenesulfonamide] | – | – | – | – | – | 10.98 ± 0.07 | 23.6 ± 0.54 | 60.8 ± 1.75 | 8.55 ± 0.14 | 261.6 ± 1.57 | – | 19.9 ± 0.89 | > 50 | 79.3 ± 2.19 | 4.55 ± 0.39 | complete inhibition; also recorded: potential iNOS inhibitory effect | slightly inhibited iNOS enzyme activity in a dose-dependent manner | –
